Assay: Solubility testing in cosmetic solvents / emollients (clear solution)
Assay type: physicochemical
Conditions: 25°C
Description: The UV absorber mixture is suspended in 1200mg solvent in a glass container (sonication bath, vortex shaker). A magnetic stirring bar is added. The container is closed and stirred over night at room temperature (20-35°C).
Specification: clear solution
The solubility of Tinosorb S was determined as described in SOFW-Journal, 139, 7-2013, page 7-14.

Solubility (Cetiol AB (C12-15 Alkyl Benzoate)): 10% w/w
Solubility (Cetiol B (Dibutyl Adipate)): 12% w/w
Solubility (Cetiol CC (Dicaprylyl Carbonate)): 9% w/w
Solubility (Cetiol Ultimate (Undecane and Tridecane)): 1% w/w
Solubility (Dub DBS (Dibutyl Sebacate)): 9% w/w
Solubility (Finsolv EB: Ethylhexyl Benzoate): 17% w/w
Solubility (Myritol 318 (Caprylic/Capric Triglyceride)): 5% w/w
Solubility (Myritol 331 (Cocoglycerides)): 5% w/w
SMILES: CCCCC(CC)COc1ccc(-c2nc(-c3ccc(OC)cc3)nc(-c3ccc(OCC(CC)CCCC)cc3O)n2)c(O)c1 (centres unmarked) [Tinosorb S, Bis-Ethylhexyloxyphenol Methoxyphenyl Triazine]

Source: EP3556748A1, “HYDROXYPHENYL-TRIAZINE UV ABSORBERS” (BASF SE, priority 2018, dated 2019)
